Experimental data taken from patent publication US7365202B2, “Polymorphs of an androgen receptor modulator” (Merck & Co., Inc., priority 2005, dated 2008).

Key:
[1] = Source text: The weight increase was based on the initial total sample weight at 25% RH.
[2] = molecular target: T1, rhAR NTD/CTD interaction in CV-1 monkey kidney cells (Macaca mulatta, UniProt Q6QT55); assay: Mammalian two-hybrid assay for ligand-induced interaction of N-terminus and C-terminus domains of the androgen receptor (agonist mode: VIRCON); type: cell-based; conditions: at 10 micromolar; read-out: agonist activity (Emax relative to the activity obtained with 3 nM R1881)
T1 construct: pCBB1 (Gal4DBD-rhARLBD fusion construct expressed under the SV40 early promoter); expressed in transfected cells; host or cells: CV-1 monkey kidney cells
T1 sequence (Q6QT55 644-895): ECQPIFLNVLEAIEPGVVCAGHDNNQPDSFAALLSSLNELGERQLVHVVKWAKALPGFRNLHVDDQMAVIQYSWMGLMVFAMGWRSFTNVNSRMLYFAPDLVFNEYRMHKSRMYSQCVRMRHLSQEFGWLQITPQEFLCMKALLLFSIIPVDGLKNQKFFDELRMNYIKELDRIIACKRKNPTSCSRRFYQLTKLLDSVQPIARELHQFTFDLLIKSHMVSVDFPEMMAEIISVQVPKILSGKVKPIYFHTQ
Source text: Mammalian Two-Hybrid Assay for the Ligand-Induced Interaction of N-Terminus and C-Terminus Domains of the Androgen Receptor (Agonist Mode: VIRCON)
This assay assesses the ability of AR agonists to induce the interaction between the N-terminal domain (NTD) and C-terminal domain (CTD) of rhAR that reflects the in vivo virilizing potential mediated by activated androgen receptors. The interaction of NTD and CTD of rhAR is quantified as ligand induced association between a Gal4DBD-rhARCTD fusion protein and a VP16-rhARNTD fusion protein as a mammalian two-hybrid assay in CV-1 monkey kidney cells.
The day before transfection, CV-1 cells are trypsinized and counted, and then plated at 20,000 cells/well in 96-well plates or larger plates (scaled up accordingly) in DMEM+10% FCS. […]
For each well, 0.4 μL LIPOFECTAMINE Reagent (GIBCO-BRL) is diluted into 4.6 μL OPTI-MEM in a second tube and mixed to form the diluted LIPOFECTAMINE Reagent. […] Forty eight hours later, luciferase activity is measured using LUC-Screen system (TROPIX) following the manufacturer's protocol. […] After incubation for 40 minutes at room temperature, luminescence is directly measured with 2-5 second integration. […]

[3] = system: human AR in MDA-MB-453 cells; assay: Trans-Activation Modulation of Androgen Receptor (TAMAR), MMTV-LUC reporter; type: cell-based
Procedure: Trans-Activation Modulation of Androgen Receptor (TAMAR)
This assay assesses the ability of test compounds to control transcription from the MMTV-LUC reporter gene in MDA-MB-453 cells, a human breast cancer cell line that naturally expresses the human AR. The assay measures induction of a modified MMTV LTR/promoter linked to the LUC reporter gene.
20,000 to 30,000 cells/well are plated in a white, clear-bottom 96-well plate in “Exponential Growth Medium” which consists of phenol red-free RPMI 1640 containing 10%FBS, 4 mM L-glutamine, 20 mM HEPES, 10 ug/mL human insulin, and 20 ug/mL gentamicin. Incubator conditions are 37° C. and 5% CO2. The transfection is done in batch mode. The cells are trypsinized and counted to the right cell number in the proper amount of fresh media, and then gently mixed with the Fugene/DNA cocktail mix and plated onto the 96-well plate. All the wells receive 200 TI of medium+lipid/DNA complex and are then incubated at 37° C. overnight. The transfection cocktail consists of serum-free Optimem, Fugene6 reagent and DNA. The manufacturer's (Roche Biochemical) protocol for cocktail setup is followed. The lipid (Tl) to DNA (Tg) ratio is approximately 3:2 and the incubation time is 20 minutes at room temperature. Sixteen to 24 hrs after transfection, the cells are treated with test compounds such that the final DMSO (vehicle) concentration is <3%. […]

SMILES | loss of total weight ([1]; 25° C., relative humidity decreases from 95% to 5% RH) | moisture uptake (weight increase based on initial total sample weight at 25% RH) ([1]; from about 25% to about 95% RH at 25° C.) | Emax at 10 µM [2] | partial agonist activity (Emax relative to the activity obtained with 100 nM R1881) [3]
CN1C(=O)C(F)=C[C@]2(C)[C@H]3CC[C@]4(C)[C@@H](C(=O)NCc5nc6ncccc6[nH]5)CC[C@H]4[C@@H]3CC[C@@H]12 [Form B, N-(3H-imidazo[4,5-b]pyridin-2-ylmethyl)-2-fluoro-4-methyl-3-oxo-4-aza-5α-androst-1-en-17β-carboxamide] | about 8% | about 7% | – | –
CN1C(=O)C(F)=C[C@]2(C)C3CC[C@]4(C)[C@@H](C(=O)NCc5nc6cccnc6[nH]5)CC[C@H]4C3CC[C@@H]12 (stereo partly drawn) [compound of formula I, N-(3H-imidazo[4,5-b]pyridin-2-ylmethyl)-2-fluoro-4-methyl-3-oxo-4-aza-5-alpha-androst-1-en-17-beta-carboxamide] | – | – | < 50% | greater than 10%
